Entries after “also recorded” stand apart in the source; their conditions may differ.
Key:
low birth weight infants [1] = test: Phase I open label single group clinical study of insulin enriched formula: growth in weight, length, head circumference; format: in vivo, human; settings: at 6 months; CDC growth tables
Method: The effect of insulin enriched formula on low birth weight full term infant was examined. Inclusion criteria for participating in the study included: healthy infants 34-42 weeks gestation (“term born infants”); birth weight above 1,650 g, typically between 1750 gram and 2500 gram; no major congenital malformation or any other illness sign; chronological age under 240 hours; mother is not willing to breastfeed the baby during the study period and signed an informed consent. Infant with a high index of suspect for infection before enrolment, maternal diabetes, and medications given until day 1 of the study were excluded. Observed results regarding weight, length, and head circumference were compared to expected values which were obtained from the CDC growth reference tables (ibid) according to the infants' gender, gestational age and percentile of birth weight (BW). Interpolation or extrapolation was used to determine the percentile and the expected gain of each infant. The expected values are specific to the percentile measure at birth. The percentile of each BW was evaluated according to the gender, gestational age and multiplicity (singleton or twin) using published tables for Israel (Dolberg S. et al., IMAJ, 7, 2005, 311-314). No such data were available with respect to the percentiles of length and of head circumference. It was therefore assumed that the BW percentile of each infant is applicable to each of the other two growth measures. […] The infants' gender, family origin, gestational age at birth, maternal medications, maternal age, chronic diseases in the family and the infant's condition upon enrollment were recorded. […] During the study, the infant's weight, length, head circumference, glucose blood levels, blood count, blood fat, blood chemistry, blood amino acids, insulin antibodies, and serum levels were recorder, as well as food consumption, vomiting, regurgitation and stools frequency were measured and assessed. The possible effect of the insulin enriched formula on growth was evaluated with respect to gain in weight, length, and head circumference. […]

low birth weight infants [2] = test: Clinical studies: safety / side effects of insulin enriched formula; format: in vivo, human
Method: Phase I, multi center, non-randomized, open label, single group study to assess the safety of insulin enriched formula on low birth weight infants was conducted in Rabin Medical Center and Laniado Hospital, Israel. The possible effect of the insulin enriched formula on growth of low birth weight infants, born on term (at least 34 weeks of gestation) was also examined in this study. Parents of eligible infants, who met the study criteria, were invited to participate in the study following signing on Informed Consent Form (ICF). From study day 1, the infants received the insulin enriched infant formula ([…], Israel). They were fed with the formula for the first 4 months without the addition of complementary feed. The infants' gender, family origin, gestational age at birth, maternal medications, maternal age, chronic diseases in the family and the infant's condition upon enrollment were recorded. […] At study day 1 and 2, and at 1, 4, 8, 12, 16 and 24 weeks the parents of the infant were asked to come to the neonatal ward for follow up examinations. During the study, the infant's weight, length, head circumference, glucose blood levels, blood count, blood fat, blood chemistry, blood amino acids, insulin antibodies, and serum levels were recorder, as well as food consumption, vomiting, regurgitation and stools frequency were measured and assessed. Infants were to be withdrawn from the study if any serious adverse event or any deterioration in the infant clinical condition had occurred. They were followed up on possible side effects and efficacy measures until 6 months of age. […] A multicenter, double blind, randomized study for studying the effect of the insulin enriched infant formula on the growth of low weight infants was planned to take place in Israel in 2005 (headed by Prof Sirota, Schneider Hospital). Due to low recruitment rate (only 8 premature infants), the study was terminated.

preterm infants [3] = test: Randomized placebo controlled study: gastrointestinal maturation (days to complete enteral feeding); format: in vivo, human; settings: all infants; control 7.9; P-value=0.2085
Method: A Multi-center, two arms, randomized, double-blinded placebo controlled study was conducted to evaluate the effect of insulin-enriched infant formula on preterm infants. In this study, the population of infants included also babies having extremely low birth weight (inclusion criteria included babies weighing over 750 grams). The insulin was given at a concentration range which is mimicking colostrums concentration (at 400 μU/ml. The study primary goal was to determine whether insulin supplement to the basic preterm oral formula enhances gastrointestinal maturation. The gastrointestinal maturation was evaluated by the ability of the premature infants to achieve complete enteral feeds (150-160 ml/kg/day). The infants were hospitalized in the neonatal hospital ward in the same manner as preterm infants whose parents elected not to participate in the study. The infants were randomly assigned to one of two treatment groups: the study product-InsuMealTM as a test group and Placebo supplement as a control group. The parents, the medical team treating the infants and the study monitor were blinded to the treatment arm. From study day 1, the infants in the test group received the InsuMealTM additive mixed with the ready to feed (RTF) preterm […] formula and the control group received a placebo supplement mixed with the same RTF preterm […] formula. […]

preterm infants [4] = test: Randomized placebo controlled study: number of hospitalization days to discharge; format: in vivo, human
Method: A Multi-center, two arms, randomized, double-blinded placebo controlled study was conducted to evaluate the effect of insulin-enriched infant formula on preterm infants. In this study, the population of infants included also babies having extremely low birth weight (inclusion criteria included babies weighing over 750 grams). The insulin was given at a concentration range which is mimicking colostrums concentration (at 400 μU/ml. The study primary goal was to determine whether insulin supplement to the basic preterm oral formula enhances gastrointestinal maturation. The gastrointestinal maturation was evaluated by the ability of the premature infants to achieve complete enteral feeds (150-160 ml/kg/day). The infants were hospitalized in the neonatal hospital ward in the same manner as preterm infants whose parents elected not to participate in the study. The infants were randomly assigned to one of two treatment groups: the study product-InsuMealTM as a test group and Placebo supplement as a control group. […] From study day 1, the infants in the test group received the InsuMealTM additive mixed with the ready to feed (RTF) preterm […] formula and the control group received a placebo supplement mixed with the same RTF preterm […] formula. Infant maturation and growth was further assessed by the number of hospitalization days required until the preterm infant could be discharged.

preterm infants [5] = settings: oral, 4 to 28 days of age, 4 U/kg/day; cited from earlier work
newborn miniature pigs = settings: oral administration of 85 mU/ml; cited from earlier work

With “insulin: polypeptide hormone; human insulin administered orally to infants, within infant formula” the “Effect on head circumference relative to the expected growth” value (low birth weight infants [1]) was 17.6%, the “Effect on length relative to the expected growth” value (low birth weight infants [1]) was 8.1% and the “Effect on weight relative to the expected growth” value (low birth weight infants [1]) was 18.1%. The Adverse events (low birth weight infants [2]; follow up to 6 months) was “No deleterious effects; also recorded: no adverse events were observed”, the Anti-insulin antibodies (low birth weight infants [2]; human, in vivo) was “did not stimulate the production of anti-insulin antibodies” and the Hypoglycemia (low birth weight infants [2]; human, in vivo) was “did not cause hypoglycemia”. The “Number of days to achieve complete enteral feeding (>=150 ml/Kg/day), Mean” value (preterm infants [3]) was 6.4 days, the “Number of days to discharge, Mean” value (preterm infants [4]; all infants, control 33.6, P-value=0.2192) was 28.8 days and the “Number of days to discharge, Mean” value (preterm infants [4]; infant birth weight < 1300 gr, control 47.0, P value=0.0447) was 35.8 days. The “Hypoglycaemia or other adverse effects” value (preterm infants [5]) was “without inducing hypoglycaemia or other adverse effects”, the Lactase activity (preterm infants [5]) was “increased lactase activity” and the “Intestine ileal mass and lactase activity” value (newborn miniature pigs) was “increased”.

— patent US20150086622A1, “GROWTH ENHANCEMENT OF INFANTS” (NUTRINIA LTD., priority 2012, published 2015)
